In patent US20260217701A1, “SELECTIVE BET INHIBITORS AND USES THEREOF” (Tay Therapeutics Limited, priority 2022, published 2026):
“And” between values parts separate entries of the source, which are not always exact repeats. Equal entries are not always repeated. Where two headings read alike, the source gives them in different places.

What was measured:
IL-22 = IL-22 release from activated human PBMCs (ELISA); assay type: cell-based; details: for Percent Inhibition Relative to Control (IL-22): Donors 1-6, two values per donor; for IC50: Homo sapiens, PBMC
Description: Human PBMCs used to analyze inhibition of CXCL10 were collected from 8 donors, PBMCs used to analyze inhibition of IL-17A were collected from 7 donors, and PBMCs used to analyze inhibition of IL-22 were collected from 6 donors. Compounds were serially diluted in 10 mM DMSO and further diluted in assay media to 100× the required final concentration, of which 2 μL was added to the specified well. […] The cell culture supernatant was collected and levels of IL-17A and IL-22 in the supernatant were assessed by ELISA (Invitrogen).

[1] = Bleomycin IPF model: body weight and mortality; assay type: in vivo, C57BI/6J mice; parameters: Mean Body Weight Change: unit not given here
Description: Male C57BI/6J mice, aged 12 weeks with an approximate weight of 25-30 g were obtained from Jackson Laboratories (Bar Harbor, ME). Animals were acclimated for two weeks prior to study initiation, and were randomized into the experimental groups outlined in Table 32.
Intratracheal (IT) administration of Bleo or PBS control was conducted at the start of the study (Day 0). […] Animals were weighed on Day 0, and indexed boluses of PBS control (Group 1) or Bleo (Groups 2-6) were delivered by IT administration.
Following administration of Bleo, animals (n=10/group) were included in the study if they met the following guidelines on Day 7: (1) a predictable 5% loss in body weight, and (2) the presence of fibrotic pulmonary lesions, detected by micro-CT imaging. 10 animals from Group 1 additionally proceeded as controls. Animals that continued in the study on Day 7 received an oral gavage (OG) administration of PBS, Compound A (1 mg/kg, 3 mg/kg, 10 mg/kg), or Pirfenidone (300 mg/kg), as outlined in Table 31 in 25 μL boluses every other day (QOD), starting on Day 7. Compound A was formulated in 5% (v/v) DMSO/15% (v/v) PEG 400/80% (v/v) E-TPGS in purified water. […]

Cn1cc(-c2ccccc2)c(-c2cn(C)c(=O)c3[nH]c(-c4cnn(C(F)(F)F)c4)cc23)cc1=O [Compound A, 6-methyl-4-(1-methyl-2-oxo-5-phenyl-1,2-dihydropyridin-4-yl)-2-(1-(trifluoromethyl)-1H-pyrazol-4-yl)-1,6-dihydro-7H-pyrrolo[2,3-c]pyridin-7-one]
potency against IL-22 relative to CXCL10 (IL-22): about 17,000 fold | Biomarker selectivity (IL-22 vs. CXCL 10) (IL-22; Average preliminary biomarker assay): 5178 Fold | Percent Inhibition Relative to Control (IL-22) (IL-22; Compound Conc. 0.000137174 μM): 36.49% and 20.77% and 20.31% and 15% and 13.22% and 40.62% and 42.44% and −18.99% and 2.10% and 20.38% and 35.83% and 13.68% | Percent Inhibition Relative to Control (IL-22) (IL-22; Compound Conc. 0.000411523 μM): 27.24% and 13.07% and 35.55% and 45.22% and 56.28% and 11.33* Percent and 49.71% and 35.72% and 28.88% and 47.8% and 62.34% and 36.26% | Percent Inhibition Relative to Control (IL-22) (IL-22; Compound Conc. 0.001234568 μM): 58.12% and 42.53% and 46.04% and 55.94% and 57.50% and 65.37% and 75.65% and 47.36% and 70.12% and 62.59% and 69.46% and 42.31% | Percent Inhibition Relative to Control (IL-22) (IL-22; Compound Conc. 0.003703704 μM): 71.96% and 57.94% and 67.89% and 62.44% | Percent Inhibition Relative to Control (IL-22) (IL-22; Compound Conc. 0.011111111 μM): 52.73% and 45.71% and 72.33% and 61.13% and 48.74% and 54.26% and 71.04% and 74.68% and 76.83% and 75.01% and 72.99% and 61.33% | Percent Inhibition Relative to Control (IL-22) (IL-22; Compound Conc. 0.033333333 μM): 59.22% and 62.46% and 72.37% and 75.81% and 66.02% and 52.09% and 58.24% and 79.61% and 59.59% and 77.99% and 81.27% and 61.98% | Percent Inhibition Relative to Control (IL-22) (IL-22; Compound Conc. 0.1 μM): 72.76% and 68.86% and 83.13% and 82.57% and 67.92% and 74.39% and 71.46% and 84.71% and 87.61% and 80.76% and 81.88% and 60.98% | Percent Inhibition Relative to Control (IL-22) (IL-22; Compound Conc. 1.52416E−05 μM): −4.73% and 3.62% and −2.47% and −6.99% and −5.22% and 11.96% and 21.53% and −30.35% and −52.69% and −14.1* Percent and −16.32* Percent and −0.25% | Percent Inhibition Relative to Control (IL-22) (IL-22; Compound Conc. 4.57247E−05 μM): −1.30% and −19.44% and 7.09% and −4.72% and −19.37% and 12.73% and 33.63% and −8.80% and 13.17% and 6.1% and 16.75% and −8.17% | IC50 (IL-22; Average preliminary biomarker assay, read-out: IL-22 IC50 Mean): 0.2 nM | IC50 (IL-22; Preliminary biomarker assay, Test Subject 1, read-out: IL-22 IC50): 0.2 nM | IC50 (IL-22; Preliminary biomarker assay, Test Subject 2, read-out: IL-22 IC50): 0.1 nM | IC50 (IL-22; Preliminary biomarker assay, Test Subject 3, read-out: IL-22 IC50): 0.3 nM | IC50 (IL-22; ELISA, read-out: Selectivity (IC50) IL-22): 0.214 nM | IC50, inhibition of release of IL-22 (IL-22; human PBMCs, 72 hours): sub-nanomolar | Mean Body Weight Change ([1]; Bleo + Compound A (1 mg/kg) OG QOD from D7, Day 1): 1.269 | Mean Body Weight Change ([1]; Bleo + Compound A (1 mg/kg) OG QOD from D7, Day 2): −0.061 | Mean Body Weight Change ([1]; Bleo + Compound A (1 mg/kg) OG QOD from D7, Day 3): −0.538 | Mean Body Weight Change ([1]; Bleo + Compound A (1 mg/kg) OG QOD from D7, Day 4): −4.382 | Mean Body Weight Change ([1]; Bleo + Compound A (1 mg/kg) OG QOD from D7, Day 5): −8.986 | Mean Body Weight Change ([1]; Bleo + Compound A (1 mg/kg) OG QOD from D7, Day 6): −11.204 | Mean Body Weight Change ([1]; Bleo + Compound A (1 mg/kg) OG QOD from D7, Day 7): −14.465 | Mean Body Weight Change ([1]; Bleo + Compound A (1 mg/kg) OG QOD from D7, Day 8): −18.012 | Mean Body Weight Change ([1]; Bleo + Compound A (1 mg/kg) OG QOD from D7, Day 9): −17.310 | Mean Body Weight Change ([1]; Bleo + Compound A (1 mg/kg) OG QOD from D7, Day 10): −17.947 | Mean Body Weight Change ([1]; Bleo + Compound A (1 mg/kg) OG QOD from D7, Day 11): −16.922 | Mean Body Weight Change ([1]; Bleo + Compound A (1 mg/kg) OG QOD from D7, Day 12): −17.204 | Mean Body Weight Change ([1]; Bleo + Compound A (1 mg/kg) OG QOD from D7, Day 13): −16.710 | Mean Body Weight Change ([1]; Bleo + Compound A (1 mg/kg) OG QOD from D7, Day 14): −16.996 | Mean Body Weight Change ([1]; Bleo + Compound A (1 mg/kg) OG QOD from D7, Day 15): −16.840 | Mean Body Weight Change ([1]; Bleo + Compound A (1 mg/kg) OG QOD from D7, Day 16): 16.698 | Mean Body Weight Change ([1]; Bleo + Compound A (1 mg/kg) OG QOD from D7, Day 17): −16.509 | Mean Body Weight Change ([1]; Bleo + Compound A (1 mg/kg) OG QOD from D7, Day 18): −16.113 | Mean Body Weight Change ([1]; Bleo + Compound A (1 mg/kg) OG QOD from D7, Day 19): −16.612 | Mean Body Weight Change ([1]; Bleo + Compound A (1 mg/kg) OG QOD from D7, Day 20): −16.506 | Mean Body Weight Change ([1]; Bleo + Compound A (1 mg/kg) OG QOD from D7, Day 21): −16.978 | Mean Body Weight Change ([1]; Bleo + Compound A (3 mg/kg) OG QOD from D7, Day 1): 0.712 | Mean Body Weight Change ([1]; Bleo + Compound A (3 mg/kg) OG QOD from D7, Day 2): −0.088 | Mean Body Weight Change ([1]; Bleo + Compound A (3 mg/kg) OG QOD from D7, Day 3): −1.018 | Mean Body Weight Change ([1]; Bleo + Compound A (3 mg/kg) OG QOD from D7, Day 4): −5.198 | Mean Body Weight Change ([1]; Bleo + Compound A (3 mg/kg) OG QOD from D7, Day 5): −8.915 | Mean Body Weight Change ([1]; Bleo + Compound A (3 mg/kg) OG QOD from D7, Day 6): −11.426 | Mean Body Weight Change ([1]; Bleo + Compound A (3 mg/kg) OG QOD from D7, Day 7): −14.024 | Mean Body Weight Change ([1]; Bleo + Compound A (3 mg/kg) OG QOD from D7, Day 8): −18.310 | Mean Body Weight Change ([1]; Bleo + Compound A (3 mg/kg) OG QOD from D7, Day 9): 18.416 | Mean Body Weight Change ([1]; Bleo + Compound A (3 mg/kg) OG QOD from D7, Day 10): −19.029 | Mean Body Weight Change ([1]; Bleo + Compound A (3 mg/kg) OG QOD from D7, Day 11): −17.826 | Mean Body Weight Change ([1]; Bleo + Compound A (3 mg/kg) OG QOD from D7, Day 12): −18.384 | Mean Body Weight Change ([1]; Bleo + Compound A (3 mg/kg) OG QOD from D7, Day 13): −18.055 | Mean Body Weight Change ([1]; Bleo + Compound A (3 mg/kg) OG QOD from D7, Day 14): −18.840 | Mean Body Weight Change ([1]; Bleo + Compound A (3 mg/kg) OG QOD from D7, Day 15): −19.765 | Mean Body Weight Change ([1]; Bleo + Compound A (3 mg/kg) OG QOD from D7, Day 16): −19.797 | Mean Body Weight Change ([1]; Bleo + Compound A (3 mg/kg) OG QOD from D7, Day 17): −20.566 | Mean Body Weight Change ([1]; Bleo + Compound A (3 mg/kg) OG QOD from D7, Day 18): −21.350 | Mean Body Weight Change ([1]; Bleo + Compound A (3 mg/kg) OG QOD from D7, Day 19): −20.021 | Mean Body Weight Change ([1]; Bleo + Compound A (3 mg/kg) OG QOD from D7, Day 20): −22.069 | Mean Body Weight Change ([1]; Bleo + Compound A (3 mg/kg) OG QOD from D7, Day 21): −22.585 | Mean Body Weight Change ([1]; Bleo + Compound A (10 mg/kg) OG QOD from D7, Day 1): 1.987 | Mean Body Weight Change ([1]; Bleo + Compound A (10 mg/kg) OG QOD from D7, Day 2): 2.172 | Mean Body Weight Change ([1]; Bleo + Compound A (10 mg/kg) OG QOD from D7, Day 3): 0.974 | Mean Body Weight Change ([1]; Bleo + Compound A (10 mg/kg) OG QOD from D7, Day 4): 4.101 | Mean Body Weight Change ([1]; Bleo + Compound A (10 mg/kg) OG QOD from D7, Day 5): −8.131 | Mean Body Weight Change ([1]; Bleo + Compound A (10 mg/kg) OG QOD from D7, Day 6): −9.560 | Mean Body Weight Change ([1]; Bleo + Compound A (10 mg/kg) OG QOD from D7, Day 7): −11.173 | Mean Body Weight Change ([1]; Bleo + Compound A (10 mg/kg) OG QOD from D7, Day 8): −14.286 | Mean Body Weight Change ([1]; Bleo + Compound A (10 mg/kg) OG QOD from D7, Day 9): −15.876 | Mean Body Weight Change ([1]; Bleo + Compound A (10 mg/kg) OG QOD from D7, Day 10): −16.428 | Mean Body Weight Change ([1]; Bleo + Compound A (10 mg/kg) OG QOD from D7, Day 11): −14.809 | Mean Body Weight Change ([1]; Bleo + Compound A (10 mg/kg) OG QOD from D7, Day 12): −13.953 | Mean Body Weight Change ([1]; Bleo + Compound A (10 mg/kg) OG QOD from D7, Day 13): −15.394 | Mean Body Weight Change ([1]; Bleo + Compound A (10 mg/kg) OG QOD from D7, Day 14): −13.610 | Mean Body Weight Change ([1]; Bleo + Compound A (10 mg/kg) OG QOD from D7, Day 15): −15.280 | Mean Body Weight Change ([1]; Bleo + Compound A (10 mg/kg) OG QOD from D7, Day 16): −13.218 | Mean Body Weight Change ([1]; Bleo + Compound A (10 mg/kg) OG QOD from D7, Day 17): −13.174 | Mean Body Weight Change ([1]; Bleo + Compound A (10 mg/kg) OG QOD from D7, Day 18): −14.218 | Mean Body Weight Change ([1]; Bleo + Compound A (10 mg/kg) OG QOD from D7, Day 19): −15.010 | Mean Body Weight Change ([1]; Bleo + Compound A (10 mg/kg) OG QOD from D7, Day 20): −16.208 | Mean Body Weight Change ([1]; Bleo + Compound A (10 mg/kg) OG QOD from D7, Day 21): −16.139 | Ending body weight at Day 21 ([1]; Bleo mice, 10 mg/kg): higher ending weight at Day 21 | Body weight course after start of administration ([1]; Bleo mice, all doses tested (1, 3, 10 mg/kg)): weight loss was arrested | Body weight compared with Bleo+Saline treated animals ([1]; Compound A (all doses tested), Pirfenidone (300 mg/kg)): No significant difference | Deaths / mortality ([1]; OG administration, IPF study): no deaths or significant changes in mortality
